From the supplement of paper PMC10307832

Key:
Assay in all cases: relative viability (nuclei count vs DMSO), 5 days (fraction); higher = more cells survive
CAP-232 + Bortezomib = compound: C[C@H]([C@@H](C(=O)N)NC(=O)[C@@H]1CSSC[C@@H](C(=O)N[C@H](C(=O)N[C@@H](C(=O)N[C@H](C(=O)N1)CCCCN)CC2=CNC3=CC=CC=C32)CC4=CC=C(C=C4)O)NC(=O)[C@@H](CC5=CC=CC=C5)N)O [CAP-232] + CC(C)C[C@H](NC(=O)[C@H](Cc1ccccc1)NC(=O)c1cnccn1)B(O)O [Bortezomib] (partner 0.002 µM)
In short: (§1)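 The day after seeding in 1536-well plates, lung cancer cell lines were treated by pin tool with a single drug, or with a fixed anchor-drug dose together with five library-drug doses (not always all listed) in √10 steps. After 5 days, a combined fix-and-stain solution (final 0.05% Triton X-100, 1% formaldehyde, 1 ug/ml Hoechst) was added. Nuclei counted on 4× images gave relative viability as treated counts over vehicle counts, reported as the median of duplicate plates.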

CAP-232 + Linsitinib = compound: C[C@H]([C@@H](C(=O)N)NC(=O)[C@@H]1CSSC[C@@H](C(=O)N[C@H](C(=O)N[C@@H](C(=O)N[C@H](C(=O)N1)CCCCN)CC2=CNC3=CC=CC=C32)CC4=CC=C(C=C4)O)NC(=O)[C@@H](CC5=CC=CC=C5)N)O [CAP-232] + C[C@]1(O)C[C@@H](c2nc(-c3ccc4ccc(-c5ccccc5)nc4c3)c3c(N)nccn32)C1 [Linsitinib] (partner 1 µM)
In short: as §1

CAP-232 + Phenformin = compound: C[C@H]([C@@H](C(=O)N)NC(=O)[C@@H]1CSSC[C@@H](C(=O)N[C@H](C(=O)N[C@@H](C(=O)N[C@H](C(=O)N1)CCCCN)CC2=CNC3=CC=CC=C32)CC4=CC=C(C=C4)O)NC(=O)[C@@H](CC5=CC=CC=C5)N)O [CAP-232] + N=C(N)NC(=N)NCCc1ccccc1 [Phenformin] (partner 250 µM)
In short: as §1

CAP-232 + AZD7762 = compound: C[C@H]([C@@H](C(=O)N)NC(=O)[C@@H]1CSSC[C@@H](C(=O)N[C@H](C(=O)N[C@@H](C(=O)N[C@H](C(=O)N1)CCCCN)CC2=CNC3=CC=CC=C32)CC4=CC=C(C=C4)O)NC(=O)[C@@H](CC5=CC=CC=C5)N)O [CAP-232] + NC(=O)Nc1cc(-c2cccc(F)c2)sc1C(=O)N[C@H]1CCCNC1 [AZD7762] (partner 0.2 µM)
In short: as §1

CAP-232 + Decitabine = compound: C[C@H]([C@@H](C(=O)N)NC(=O)[C@@H]1CSSC[C@@H](C(=O)N[C@H](C(=O)N[C@@H](C(=O)N[C@H](C(=O)N1)CCCCN)CC2=CNC3=CC=CC=C32)CC4=CC=C(C=C4)O)NC(=O)[C@@H](CC5=CC=CC=C5)N)O [CAP-232] + Nc1ncn([C@H]2C[C@H](O)[C@@H](CO)O2)c(=O)n1 [Decitabine] (partner 2 µM)
In short: as §1

Cell Line | relative viability (CAP-232 + Bortezomib; first compound 0.4 µM) | relative viability (CAP-232 + Bortezomib; first compound 1.265 µM) | relative viability (CAP-232 + Bortezomib; first compound 4 µM) | relative viability (CAP-232 + Bortezomib; first compound 12.65 µM) | relative viability (CAP-232 + Linsitinib; first compound 0.4 µM) | relative viability (CAP-232 + Linsitinib; first compound 1.265 µM) | relative viability (CAP-232 + Linsitinib; first compound 4 µM) | relative viability (CAP-232 + Linsitinib; first compound 12.65 µM) | relative viability (CAP-232 + Phenformin; first compound 0.4 µM) | relative viability (CAP-232 + Phenformin; first compound 1.265 µM) | relative viability (CAP-232 + Phenformin; first compound 4 µM) | relative viability (CAP-232 + Phenformin; first compound 12.65 µM) | relative viability (CAP-232 + AZD7762; first compound 0.4 µM) | relative viability (CAP-232 + AZD7762; first compound 1.265 µM) | relative viability (CAP-232 + AZD7762; first compound 4 µM) | relative viability (CAP-232 + AZD7762; first compound 12.65 µM) | relative viability (CAP-232 + Decitabine; first compound 0.4 µM) | relative viability (CAP-232 + Decitabine; first compound 1.265 µM) | relative viability (CAP-232 + Decitabine; first compound 4 µM) | relative viability (CAP-232 + Decitabine; first compound 12.65 µM)
201T | 1.17 | 1.04 | 1.05 | 1.1 | 1.05 | 0.974 | 0.978 | 0.948 | 0.487 | 0.419 | 0.416 | 0.443 | 0.636 | 0.716 | 0.643 | 0.643 | 0.842 | 0.844 | 0.817 | 0.849
A549 | – | – | – | – | 0.621 | 0.59 | 0.583 | 0.531 | 0.164 | 0.183 | 0.146 | 0.113 | – | – | – | – | 0.267 | 0.212 | 0.33 | 0.239
A-427 | 1.21 | 0.972 | 0.993 | 0.964 | 1.14 | 1.09 | 1.15 | 1.12 | 0.249 | 0.332 | 0.259 | 0.312 | 0.72 | 0.754 | 0.811 | 0.746 | 0.578 | 0.556 | 0.599 | 0.56
ABC-1 | 0.296 | 0.306 | 0.222 | 0.264 | 1.07 | 0.781 | 0.726 | 0.427 | 0.249 | 0.243 | 0.215 | 0.186 | 0.883 | 0.541 | 0.803 | 0.692 | 1.05 | – | 0.984 | 0.887
BEN | 0.819 | 0.667 | 0.959 | 0.745 | 0.952 | 0.944 | 0.818 | 0.896 | 0.246 | 0.231 | 0.231 | 0.221 | 0.789 | 0.714 | 0.7 | 0.553 | 0.792 | 0.686 | 0.742 | 0.795
CAL-12T | 1.21 | 0.939 | 0.91 | 0.477 | 0.812 | 0.784 | 0.892 | 0.966 | 0.491 | 0.506 | 0.593 | 0.355 | 0.753 | 0.596 | 0.664 | 0.706 | – | – | – | –
COR-L23 | 0.959 | 1.04 | 1.15 | 0.732 | 0.92 | 1 | 0.971 | 0.676 | 0.497 | 0.47 | 0.468 | 0.372 | – | – | – | – | 0.451 | 0.407 | 0.471 | 0.337
COR-L 105 | 0.913 | 0.742 | 0.657 | 0.567 | 0.963 | 0.816 | 1.08 | 0.61 | 0.423 | 0.429 | 0.501 | 0.287 | – | – | – | – | 0.629 | 0.647 | 0.684 | 0.477
ChaGo-K-1 | 1.45 | 0.768 | 1.06 | 0.784 | – | – | – | – | 0.487 | 0.466 | 0.601 | 0.505 | 0.869 | 0.868 | 0.916 | 0.817 | 0.497 | 0.542 | 0.506 | 0.547
EKVX | 1.15 | 0.931 | 0.925 | 0.917 | 1.01 | 1.07 | 0.972 | 0.737 | 0.232 | 0.218 | 0.23 | 0.233 | 0.899 | 0.712 | 0.699 | 0.471 | 0.993 | 0.367 | 0.256 | 0.323
EMC-BAC-2 | 1.13 | 1.11 | 1.14 | 1.12 | 0.785 | 0.796 | 0.821 | 0.774 | 0.541 | 0.498 | 0.526 | 0.465 | 1.28 | 1.05 | 1.12 | 0.828 | 0.969 | 0.963 | 0.959 | 0.972
EPLC-272H | 0.992 | 0.878 | 0.892 | 0.87 | 1.33 | 1.02 | 1.3 | 1.09 | 0.276 | 0.285 | 0.319 | 0.322 | 0.287 | 0.165 | 0.228 | 0.209 | 0.348 | 0.334 | 0.344 | 0.355
H3255 | 0.934 | 0.816 | 0.829 | 0.688 | 0.922 | 0.924 | 1.16 | 0.916 | 0.746 | 0.309 | 0.341 | 0.504 | 0.979 | 0.869 | 0.898 | 0.756 | 0.744 | – | 0.608 | 0.676
HARA | 1.2 | 1.2 | 1.13 | 1.17 | 0.907 | 0.989 | 1.14 | 0.836 | 0.538 | 0.5 | 0.463 | 0.515 | 0.397 | 0.576 | 0.267 | 0.315 | 0.526 | 0.555 | 0.523 | 0.527
IA-LM | 0.861 | 0.656 | 0.698 | 0.236 | 0.828 | 0.611 | 0.711 | 0.394 | – | – | – | – | – | – | – | – | – | – | – | –
LK-2 | – | – | – | – | 0.463 | 0.836 | 0.517 | 0.389 | 0.47 | 0.302 | 0.389 | 0.415 | 0.357 | 0.274 | 0.322 | 0.376 | 0.357 | 0.234 | 0.37 | 0.302
